Laboratory results taken from ChEMBL document CHEMBL3885881, “DrugMatrix”.

Species on record: Rattus norvegicus
Test: DrugMatrix - Regimen: Daily Repeat
Assay type: toxicity, organism-based, Sprague-Dawley
Design: regimen Daily Repeat, gender Male, age 6-8 weeks
Settings: in vivo, iv, 55 mg/kg, dose level Low, vehicle 100 % SALINE
[1] = 72 h, tissue Plasma, time 3 day
[2] = 120 h, tissue Blood, time 5 day
[3] = 120 h, tissue Plasma, time 5 day

With GADOPENTETATE DIMEGLUMINE the “ABSOLUTE BASOPHIL” value (72 h, tissue Blood, time 3 day) was 0 CELLS/uL, the “ABSOLUTE EOSINOPHIL” value (72 h, tissue Blood, time 3 day) was 43.67 CELLS/uL and the “ABSOLUTE LYMPHOCYTE” value (72 h, tissue Blood, time 3 day) was 9839.33 CELLS/uL. For the same sequence, the “ABSOLUTE MONOCYTE” value (72 h, tissue Blood, time 3 day) was 219.67 CELLS/uL, the “ABSOLUTE SEGMENTED NEUTROPHIL” value (72 h, tissue Blood, time 3 day) was 564 CELLS/uL and the BASOPHIL (72 h, tissue Blood, time 3 day) was 0%. For the same sequence, the EOSINOPHIL (72 h, tissue Blood, time 3 day) was 0.33%, the “ERYTHROCYTE COUNT” value (72 h, tissue Blood, time 3 day) was 5.53 x10E6/uL and the HEMOGLOBIN (72 h, tissue Blood, time 3 day) was 13.6 G/DL. For the same sequence, the “LEUKOCYTE COUNT” value (72 h, tissue Blood, time 3 day) was 10.67 x10E3/uL, the LYMPHOCYTE (72 h, tissue Blood, time 3 day) was 92.67% and the “MEAN CORPUSCULAR HEMOGLOBIN” value (72 h, tissue Blood, time 3 day) was 24.63 pg. For the same sequence, the “MEAN CORPUSCULAR HEMOGLOBIN CONCENTRATION” value (72 h, tissue Blood, time 3 day) was 37.3 G/DL, the “MEAN CORPUSCULAR VOLUME” value (72 h, tissue Blood, time 3 day) was 66.07 fL and the MONOCYTE (72 h, tissue Blood, time 3 day) was 2%. For the same sequence, the NEUTROPHIL (72 h, tissue Blood, time 3 day) was 5%, the “NUCLEATED RED BLOOD CELLS” value (72 h, tissue Blood, time 3 day) was 0 /100WBC and the “PLATELET COUNT” value (72 h, tissue Blood, time 3 day) was 1301 x10E3/uL. For the same sequence, the “ALANINE AMINOTRANSFERASE” value [1] was 40 u/L, the “ALKALINE PHOSPHATASE” value [1] was 398.33 u/L and the “ASPARTATE AMINOTRANSFERASE” value [1] was 87.67 u/L. The “CARBON DIOXIDE” value [1] was 23.33 mmol/L, the CHOLESTEROL [1] was 81.33 mg/dL and the “CREATINE PHOSPHOKINASE” value [1] was 415.67 u/L. For the same sequence, the CREATININE [1] was 0.21 mg/dL, the “LACTATE DEHYDROGENASE” value [1] was 589.67 u/L and the POTASSIUM [1] was 6.91 MEQ/L. The SODIUM [1] was 145.83 MEQ/L, the “TOTAL BILIRUBIN” value [1] was 0.2 mg/dL and the “TOTAL PROTEIN” value [1] was 6.1 G/DL. The “ABSOLUTE BASOPHIL” value [2] was 0 CELLS/uL, the “ABSOLUTE EOSINOPHIL” value [2] was 278.33 CELLS/uL and the “ABSOLUTE LYMPHOCYTE” value [2] was 15424.33 CELLS/uL. The “ABSOLUTE MONOCYTE” value [2] was 421.67 CELLS/uL, the “ABSOLUTE SEGMENTED NEUTROPHIL” value [2] was 1375.67 CELLS/uL and the BASOPHIL [2] was 0%. For the same sequence, the “ERYTHROCYTE COUNT” value [2] was 5.85 x10E6/uL, the HEMATOCRIT [2] was 36.97% and the HEMOGLOBIN [2] was 14.03 G/DL. The “LEUKOCYTE COUNT” value [2] was 17.5 x10E3/uL, the LYMPHOCYTE [2] was 88% and the “MEAN CORPUSCULAR HEMOGLOBIN” value [2] was 24.07 pg. The “MEAN CORPUSCULAR HEMOGLOBIN CONCENTRATION” value [2] was 37.97 G/DL, the NEUTROPHIL [2] was 8% and the “NUCLEATED RED BLOOD CELLS” value [2] was 0 /100WBC. The “PLATELET COUNT” value [2] was 1344.67 x10E3/uL, the “ALANINE AMINOTRANSFERASE” value [3] was 53.33 u/L and the ALBUMIN [3] was 4.2 G/DL. For the same sequence, the “ALKALINE PHOSPHATASE” value [3] was 358.67 u/L, the “ASPARTATE AMINOTRANSFERASE” value [3] was 83 u/L and the “BLOOD UREA NITROGEN” value [3] was 16.67 mg/dL. The “CARBON DIOXIDE” value [3] was 26.33 mmol/L, the CHLORIDE [3] was 106.67 MEQ/L and the CHOLESTEROL [3] was 68 mg/dL. For the same sequence, the “CREATINE PHOSPHOKINASE” value [3] was 219.67 u/L, the CREATININE [3] was 0.19 mg/dL and the GLUCOSE [3] was 172 mg/dL. For the same sequence, the “LACTATE DEHYDROGENASE” value [3] was 98 u/L, the LIPASE [3] was 10 u/L and the PHOSPHORUS [3] was 12.93 mg/dL. For the same sequence, the POTASSIUM [3] was 6.64 MEQ/L, the SODIUM [3] was 146.2 MEQ/L and the “TOTAL BILIRUBIN” value [3] was 0.2 mg/dL. The “TOTAL PROTEIN” value [3] was 6.13 G/DL and the “URIC ACID” value [3] was 2.37 mg/dL.
